In ChEMBL document CHEMBL2429811, “Novel selective and potent inhibitors of malaria parasite dihydroorotate dehydrogenase: discovery and optimization of dihydrothiophenone derivatives” (J Med Chem, 2013):

Assays:
Plasmodium falciparum [1] = test: microbe, parasite or virus in culture; settings: 3D7, 72 h
Description: Antiplasmodial activity against chloroquine-sensitive Plasmodium falciparum 3D7 infected in erythrocytes assessed as parasite growth inhibition after 72 hrs by SYBR green 1 dye-based fluorometric analysis

[2] = target: T1, Dihydroorotate dehydrogenase (Plasmodium falciparum, UniProt Q54A96); test: Inhibition of Plasmodium falciparum DHODH (Phe158 to Ser569) expressed in Escherichia coli BL21 using dihydroorotate as substrate measured every 30 secs for 6 mins by DCIP dye-based assay
T1 sequence (Q54A96 whole entry): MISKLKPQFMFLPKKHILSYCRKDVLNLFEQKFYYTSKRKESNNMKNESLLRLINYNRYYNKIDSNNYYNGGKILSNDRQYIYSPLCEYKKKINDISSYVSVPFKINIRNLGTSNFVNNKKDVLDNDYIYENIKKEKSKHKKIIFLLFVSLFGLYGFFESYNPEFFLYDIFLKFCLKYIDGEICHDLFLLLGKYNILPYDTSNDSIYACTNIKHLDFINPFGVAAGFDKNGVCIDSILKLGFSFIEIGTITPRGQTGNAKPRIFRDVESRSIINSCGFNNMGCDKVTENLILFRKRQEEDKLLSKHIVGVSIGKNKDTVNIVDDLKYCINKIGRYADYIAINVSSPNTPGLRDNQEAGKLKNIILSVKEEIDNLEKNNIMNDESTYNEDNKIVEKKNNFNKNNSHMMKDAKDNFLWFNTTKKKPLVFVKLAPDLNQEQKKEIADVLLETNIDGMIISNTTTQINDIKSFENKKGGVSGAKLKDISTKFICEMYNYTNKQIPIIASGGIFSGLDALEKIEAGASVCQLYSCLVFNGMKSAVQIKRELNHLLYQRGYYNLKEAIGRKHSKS

Plasmodium falciparum [3] = test: microbe, parasite or virus in culture; settings: Dd2, 72 h
Description: Antiplasmodial activity against chloroquine-resistant Plasmodium falciparum Dd2 infected in erythrocytes assessed as parasite growth inhibition after 72 hrs by SYBR green 1 dye-based fluorometric analysis

[4] = target: Dihydroorotate dehydrogenase (quinone), mitochondrial (Homo sapiens, UniProt Q02127); test: Inhibition of N-terminal His10-tagged human DHODH (Met30 to Arg396) expressed in Escherichia coli BL21 (DE3) using dihydroorotate as substrate measured every 30 secs for 6 mins by DCIP dye-based assay
Dihydroorotate dehydrogenase (quinone), mitochondrial, sequence (Q02127 whole entry): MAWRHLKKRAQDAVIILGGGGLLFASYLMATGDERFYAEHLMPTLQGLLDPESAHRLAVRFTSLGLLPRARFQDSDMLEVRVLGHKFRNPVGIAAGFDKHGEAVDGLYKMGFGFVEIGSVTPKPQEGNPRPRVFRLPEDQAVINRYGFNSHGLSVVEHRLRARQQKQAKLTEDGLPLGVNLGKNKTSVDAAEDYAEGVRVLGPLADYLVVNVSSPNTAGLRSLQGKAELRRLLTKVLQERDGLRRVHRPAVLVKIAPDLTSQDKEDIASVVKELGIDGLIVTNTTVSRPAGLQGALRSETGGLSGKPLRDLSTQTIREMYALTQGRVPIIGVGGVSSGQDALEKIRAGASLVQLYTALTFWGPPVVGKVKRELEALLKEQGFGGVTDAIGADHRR

[5] = Half life in Sprague-Dawley rat at 10 mg/kg, po; assay type: ADME, organism-based; design: dose 10 mg/kg, route oral; settings: in vivo
[6] = Tmax in Sprague-Dawley rat at 10 mg/kg, po; assay type: ADME, organism-based; design: dose 10 mg/kg, route oral; settings: in vivo
[7] = Half life in Sprague-Dawley rat at 1 mg/kg, iv; assay type: ADME, organism-based; design: dose 1 mg/kg, route intravenous; settings: in vivo
[8] = AUC (0 to last) in Sprague-Dawley rat at 10 mg/kg, po; assay type: ADME, organism-based; design: time 0 - last, dose 10 mg/kg, route oral; settings: plasma
[9] = Cmax in Sprague-Dawley rat at 10 mg/kg, po; assay type: ADME, organism-based; design: dose 10 mg/kg, route oral; settings: in vivo
[10] = Volume of distribution in Sprague-Dawley rat at 1 mg/kg, iv; assay type: ADME, organism-based; design: dose 1 mg/kg, route intravenous; settings: in vivo
[11] = Oral bioavailability in Sprague-Dawley rat at 10 mg/kg; assay type: ADME, organism-based; settings: in vivo
[12] = Clearance in Sprague-Dawley rat at 1 mg/kg, iv; assay type: ADME, organism-based; design: dose 1 mg/kg, route intravenous; settings: in vivo

Row | Compound | IC50 (Plasmodium falciparum [1]) [nM] | IC50 [2] [nM] | IC50 (Plasmodium falciparum [3]) [nM] | IC50 [4] [nM] | half-life [5] [min] | Tmax [6] [min] | half-life [7] [min] | AUC(0-t) [8] [ng·h/mL] | Cmax [9] [ng/mL] | Vd [10] [L/kg] | bioavailability [11] [%] | clearance [12] [mL/min/kg]
1 | CCOC(=O)C1=C(Nc2ccccc2)SCC1=O | 5900 | > 50000 | 6560 | > 50000 |  |  |  |  |  |  |  | 
2 | CCOC(=O)C1=C(Nc2ccc(Cl)cc2)SCC1=O | > 20000 | 1110 | > 20000 | > 50000 |  |  |  |  |  |  |  | 
3 | CCCCOC(=O)C1=C(Nc2ccc(C)c(C)c2)SCC1=O | 745 | 2350 | 889 | > 50000 |  |  |  |  |  |  |  | 
4 | Cc1ccc(NC2=C(C(=O)OCC3CC3)C(=O)CS2)cc1C | 3530 | 4160 | 2630 | > 50000 |  |  |  |  |  |  |  | 
5 | Cc1ccc(NC2=C(C(N)=O)C(=O)CS2)cc1C | > 20000 | > 50000 | > 20000 | > 50000 |  |  |  |  |  |  |  | 
6 | CCNC(=O)C1=C(Nc2ccc(C)c(C)c2)SCC1=O | 8470 | 39500 | 6260 | > 50000 |  |  |  |  |  |  |  | 
7 | CCCNC(=O)C1=C(Nc2ccc(C)c(C)c2)SCC1=O | 3170 | 4630 | 3930 | 6300 |  |  |  |  |  |  |  | 
8 | CCCCNC(=O)C1=C(Nc2ccc(C)c(C)c2)SCC1=O | 2700 | 5730 | 2780 | 4420 |  |  |  |  |  |  |  | 
9 | Cc1ccc(NC2=C(C(=O)NC3CC3)C(=O)CS2)cc1C | 6620 | 19100 | 5530 | 4110 |  |  |  |  |  |  |  | 
10 | Cc1ccc(NC2=C(C(=O)NCC3CC3)C(=O)CS2)cc1C | 3340 | 3660 | 3500 | 1840 |  |  |  |  |  |  |  | 
11 | COC(=O)C1=C(Nc2ccc3ccccc3c2)SCC1=O | 245 | 33 | 400 | > 50000 |  |  |  |  |  |  |  | 
12 | CCCOC(=O)C1=C(Nc2ccc3ccccc3c2)SCC1=O | 890 | 951 | 1660 | > 50000 |  |  |  |  |  |  |  | 
13 | CCCCOC(=O)C1=C(Nc2ccc3ccccc3c2)SCC1=O | 8380 | 35600 | 5230 | > 50000 |  |  |  |  |  |  |  | 
14 | CCNC(=O)C1=C(Nc2ccc3ccccc3c2)SCC1=O | 11100 | 12100 | 8490 | > 50000 |  |  |  |  |  |  |  | 
15 | CCCNC(=O)C1=C(Nc2ccc3ccccc3c2)SCC1=O | 3480 | > 50000 | 3550 | > 50000 |  |  |  |  |  |  |  | 
16 | CCCCNC(=O)C1=C(Nc2ccc3ccccc3c2)SCC1=O | 5830 | > 50000 | 4030 | > 50000 |  |  |  |  |  |  |  | 
17 | O=C1CSC(Nc2ccc3ccccc3c2)=C1C(=O)NC1CC1 | 10200 | 13200 | 7940 | > 50000 |  |  |  |  |  |  |  | 
18 | O=C1CSC(Nc2ccc3ccccc3c2)=C1C(=O)NCC1CC1 | 12400 | > 50000 | > 20000 | > 50000 |  |  |  |  |  |  |  | 
19 | CCOC(=O)C1=C(Nc2ccc3ccccc3c2)OCC1=O | 15 | 6 | 18 | > 50000 | 45 | 17.4 | 15.6 | 791 | 609 | 1.91 | 40 | 84.7
20 | CCOC(=O)C1=C(Nc2ccc(C)c(C)c2)OCC1=O | 372 | 698 | 486 | > 50000 |  |  |  |  |  |  |  | 
21 | CCOC(=O)C1=C(Nc2cnc3ccccc3c2)OCC1=O | 492 | 79 | 517 | > 50000 |  |  |  |  |  |  |  | 
22 | CCOC(=O)C1=C(Nc2ccc3c(c2)CCCC3)OCC1=O | 57 | 18 | 76 | > 50000 |  |  |  |  |  |  |  | 
23 | CCOC(=O)C1=C(Nc2ccc3c(c2)CCC3)OCC1=O | 495 | 65 | 373 | > 50000 |  |  |  |  |  |  |  | 

Row | Compound | IC50 (Plasmodium falciparum [1]) [nM] | IC50 [2] [nM] | IC50 (Plasmodium falciparum [3]) [nM] | IC50 [4] [nM] | half-life [5] [min] | Tmax [6] [min] | half-life [7] [min] | AUC(0-t) [8] [ng·h/mL] | Cmax [9] [ng/mL] | Vd [10] [L/kg] | bioavailability [11] [%] | clearance [12] [mL/min/kg]
24 | CCOC(=O)C1=C(Nc2ccc(S(F)(F)(F)(F)F)cc2)OCC1=O | 680 | 168 | 1060 | > 50000 |  |  |  |  |  |  |  | 
25 | CCOC(=O)C1=C(Nc2ccc(C(F)(F)F)cc2)OCC1=O | 607 | 142 | 867 | > 50000 |  |  |  |  |  |  |  | 
26 | CCOC(=O)C1=C(Nc2ccc(C(F)(F)F)cc2)SCC1=O | 946 | 367 | 1040 | > 50000 |  |  |  |  |  |  |  | 
27 | CCOC(=O)C1=C(Nc2ccc(S(F)(F)(F)(F)F)cc2)SCC1=O | 307 | 559 | 697 | > 50000 |  |  |  |  |  |  |  | 
28 | CCOC(=O)C1=C(Nc2ccc(C(C)(C)C)cc2)SCC1=O | 1520 | 227 | 767 | > 50000 |  |  |  |  |  |  |  | 
29 | CCOC(=O)C1=C(Nc2ccc(Cl)c(C(F)(F)F)c2)SCC1=O | 2190 | 751 | 3150 | > 50000 |  |  |  |  |  |  |  | 
30 | CCOC(=O)C1=C(Nc2ccc(Br)c(C(F)(F)F)c2)SCC1=O | 5610 | 1620 | 5540 | > 50000 |  |  |  |  |  |  |  | 
31 | CCOC(=O)C1=C(Nc2cccc(C(F)(F)F)c2)SCC1=O | 14400 | > 50000 | 13600 | > 50000 |  |  |  |  |  |  |  | 
32 | CCOC(=O)C1=C(Nc2cc(Cl)cc(Cl)c2)SCC1=O | 4030 | 1190 | 6000 | > 50000 |  |  |  |  |  |  |  | 
33 | CCOC(=O)C1=C(Nc2ccc(C)c(C)c2)SCC1=O | 1990 | 256 | 1320 | > 50000 |  |  |  |  |  |  |  | 
34 | CCOC(=O)C1=C(Nc2ccc(C)c(F)c2)SCC1=O | 5050 | 536 | 3730 | > 50000 |  |  |  |  |  |  |  | 
35 | CCOC(=O)C1=C(Nc2ccc(Br)cc2C)SCC1=O | > 20000 | > 50000 | > 20000 | > 50000 |  |  |  |  |  |  |  | 
36 | CCOC(=O)C1=C(Nc2ccc3c(c2)CCCC3)SCC1=O | 169 | 92 | 315 | 12000 |  |  |  |  |  |  |  | 
37 | CCOC(=O)C1=C(Nc2cnc3ccccc3c2)SCC1=O | 253 | 351 | 290 | > 50000 |  |  |  |  |  |  |  | 
38 | CCOC(=O)C1=C(Nc2ccc3ccccc3c2)SCC1=O | 77 | 20 | 57 | > 50000 | 154 | 15 | 18 | 39.3 | 25.5 | 3.35 | 3.02 | 129
39 | CCOC(=O)C1=C(Nc2ccc3c(c2)CCC3)SCC1=O | 1400 | 851 | 1570 | > 50000 |  |  |  |  |  |  |  | 
40 | CCOC(=O)C1=C(Nc2ccc3cc4ccccc4cc3c2)SCC1=O | 688 | 197 | 1130 | > 50000 |  |  |  |  |  |  |  | 
41 | CCOC(=O)C1=C(Nc2ccc3c(c2)c2ccccc2n3CC)SCC1=O | 1230 | 392 | 1510 | > 50000 |  |  |  |  |  |  |  | 
42 | Cc1ccc(NC2=CC(=O)CS2)cc1C | 1910 | 11400 | 2500 | > 50000 |  |  |  |  |  |  |  | 
43 | Cc1ccc(NC2=C(C(=O)O)C(=O)CS2)cc1C | > 20000 | > 50000 | > 20000 | > 50000 |  |  |  |  |  |  |  | 
44 | O=C(O)C1=C(Nc2ccc3ccccc3c2)SCC1=O | 1860 | 1240 | 1050 | > 50000 |  |  |  |  |  |  |  | 
45 | COC(=O)C1=C(Nc2ccc(C)c(C)c2)SCC1=O | 1020 | 1490 | 1270 | > 50000 |  |  |  |  |  |  |  | 
46 | CCCOC(=O)C1=C(Nc2ccc(C)c(C)c2)SCC1=O | 2110 | 4030 | 1690 | 11600 |  |  |  |  |  |  |  | 
